Results published in article PMC10069031 (European Journal of Medical Research, 2023).

Columns and labels:
ERK1/2 = assay: Inhibition of ERK activation in CSF1-stimulated RAW264.7 cells (western blot); format: cell-based, mouse; settings: Mus musculus, mean ± SD (replicates), read-out: Mean kinase IC50 values: P(T185,202;Y187,204) ERK1/2 [WB]
Experimental: (§1) RAW264.7 cells (10^6) were seeded into cell culture dishes 6 cm in diameter and incubated in 4 mL RPMI/10% fetal bovine serum (Biochrom) for 24 h at 37 °C in a humidified 5% CO2 atmosphere. Cells were washed once with phosphate-buffered saline (PBS) and starved in 3 mL RPMI/0.1% bovine serum albumin for another 24 h. Cells were then treated for 1 h at 37 °C with drugs at the indicated final concentrations, with 0.5% DMSO as vehicle control, or left untreated, and finally stimulated for 2 min at 37 °C with 100 ng/mL recombinant mouse CSF1 (R&D Systems) by adding 1 mL prewarmed starving medium containing 400 ng/mL CSF1. Dishes were placed on ice and cells were immediately washed with ice-cold PBS and lysed with 50 µL lysis buffer (50 mM HEPES pH 7.5, 150 mM NaCl, 1.5 mM MgCl2, 10% glycerol, 1% Triton X-100, 0.5% desoxycholate, 0.2% sodium dodecyl sulfate, 1 mM ethylene glycol-bis[β-aminoethyl ether]-N,N,N′,N′-tetraacetic acid, 100 mM NaF, 10 mM Na4P2O7, 1 mM Na3VO4, 1% Phosphatase Inhibitor Cocktail 3 [Sigma-Aldrich], 1 mM phenylmethyl sulfonyl fluoride, Complete Protease Inhibitor Cocktail [Roche CustomBiotech; 1 tablet/10 mL], and 50 U/mL Benzonase [Sigma-Aldrich]). Lysed cells were scraped into Eppendorf tubes, incubated on ice for 20 min, and centrifuged at 4 °C for 10 min at 13,000 rpm; supernatants (lysates) were transferred into new tubes and stored at −80 °C.
(§2) Protein concentrations were determined using Pierce bicinchoninic acid assay (Thermo Fisher Scientific) and 40 µg/lane of total lysate was separated by SDS-PAGE on 4–12% Criterion XT Bis–Tris Gels (Bio-Rad) and subsequently transferred to polyvinylidene difluoride membranes using the Trans Blot Turbo Blotting System (Bio-Rad). For antigen detection, membranes were blocked with PBS Odyssey blocking reagent (LI-COR Biosciences) for 1 h at room temperature (RT). Primary antibodies were incubated overnight at 4 °C and the fluorescent secondary antibodies were incubated for 1 h at RT. After each antibody incubation, blots were washed with PBS with 0.05% Tween 20 (Carl Roth) for 15–30 min at RT. Fluorescent signals were quantitatively captured using the Odyssey DLx Infrared Imaging System (LI-COR Biosciences) and the half-maximal inhibitory concentration (IC50) values were calculated using GraphPad software (version 7 or newer).

AKT = assay: Inhibition of AKT activation in CSF1-stimulated RAW264.7 cells (western blot); format: cell-based, mouse; settings: Mus musculus, mean ± SD (replicates), read-out: Mean kinase IC50 values: P(S473)AKT [WB]
Experimental: as §1, §2

[1] = PK of REG in plasma and CT26 tumor tissue; format: in vivo, mouse; settings: after the last dose, CT26 mice
Experimental: CT26 tumor cells were cultivated in RPMI 1640 with 2 mM L-glutamine (Gibco, Invitrogen GmbH) containing 10% fetal bovine serum (Gibco) at 37 °C and 5% CO2. Cell lines were maintained in culture for no longer than 6 months, and mycoplasma contamination was excluded by enzymatic test (MycoAlert, Lonza) prior to in vivo application. Tumor cells (2 × 10^6) were transplanted subcutaneously into 6- to 8-week-old female BALB/c mice. Control mice were subjected to sham surgery without tumor cell transplantation. Blood and tumor samples were collected from untreated control and tumor-bearing mice on days 4 and 8 (n = 3 mice/group). […] For interim analysis, blood and tumor tissue were collected from each group (n = 3 mice/group) after 7 days of treatment. For pharmacokinetic (PK)/pharmacodynamic (PD) relationship analysis, tissues were taken 24 h after the penultimate dose and 1, 3, 7, and 24 h after the ultimate dose. Tumor diameter was measured by caliper and body weight was determined at least twice weekly. Tumor volume was calculated using the formula 0.5 × a × b^2, where a and b are the long and short diameters of the tumor, respectively.
PK parameters, namely AUC(0–24)ss and Cmax, were calculated from plasma and tumor concentrations using a noncompartmental analysis.

CCL2 [2] = assay: CCL2 ELISA in plasma, CT26 study; format: in vivo, mouse; settings: steady-state analysis
Experimental: CT26 tumor cells were cultivated in RPMI 1640 with 2 mM L-glutamine (Gibco, Invitrogen GmbH) containing 10% fetal bovine serum (Gibco) at 37 °C and 5% CO2. Cell lines were maintained in culture for no longer than 6 months, and mycoplasma contamination was excluded by enzymatic test (MycoAlert, Lonza) prior to in vivo application. Tumor cells (2 × 10^6) were transplanted subcutaneously into 6- to 8-week-old female BALB/c mice. Control mice were subjected to sham surgery without tumor cell transplantation. Blood and tumor samples were collected from untreated control and tumor-bearing mice on days 4 and 8 (n = 3 mice/group). […] Tumor diameter was measured by caliper and body weight was determined at least twice weekly. Tumor volume was calculated using the formula 0.5 × a × b^2, where a and b are the long and short diameters of the tumor, respectively.
For tissue collection, mice were killed at predetermined time points. […] Tumors were removed, and their weights determined, then divided into three pieces, one of which was snap-frozen, one formalin fixed and paraffin embedded, and one weighed and used for FC analyses.
CCL2 was detected in plasma samples and tumor tissue using the U-Plex mouse MCP-1 ELISA Kit (Meso Scale Diagnostics) according to the manufacturer’s instructions. […] For plasma, 12.5 µL was analyzed per animal. […]

CCL2 [3] = assay: CCL2 in MC38 tumors; format: in vivo, mouse; settings: REG 5 and 10 mg/kg/day
Experimental: For tumors, snap-frozen tissue was subjected to cryogenic grinding using a Mixer Mill MM 400 and stainless steel beads (7 mm in diameter; Retsch) and subsequently lysed in Tris Lysis Buffer (Meso Scale Diagnostics). The lysates were centrifuged at 25,000 g at 4 °C for 10 min, protein concentrations were determined using the 660 nm protein assay kit (Pierce), and 2–20 μg of lysate was used for CCL2 analysis. CCL2 concentrations were related to the amounts of tumor tissue taken for the lysis procedure.
Five analysis of variance (ANOVA) models were applied to analyze the log10-transformed values of the tumor weight in the CT26 study, the CCL2 levels in the tumor in the CT26 and MC38 studies, and the CCL2 levels in the PB in the CT26 and MC38 studies. The standard assumption of equal variances between treatment groups was applied for all endpoints, except for CCL2 levels in the tumor in the MC38 study, for which unequal variances between treatment groups were allowed. A negative binomial regression model was applied to evaluate percentages of CD115^hi and F4/80^hi cells within the CD45^+ cell population in PB and tumor tissue, respectively.
In vivo passaging was initiated by transplanting fragments of cryo-preserved MC38 tumors of early passages (<p5) subcutaneously into 6–8-week-old female C57BL/6 mice. […]

TAM-associated genes = assay: qRT-PCR of TAM-associated genes in CT26 tumors; format: in vivo, mouse; settings: REG(V1) vs V1, qRT-PCR

SMILES: CNC(=O)c1cc(Oc2ccc(NC(=O)Nc3ccc(Cl)c(C(F)(F)F)c3)c(F)c2)ccn1 [REG, Regorafenib]
- IC50 (ERK1/2): 293 ± 123 nM
- IC50 (AKT): 141 ± 59 nM
- time of highest concentration of REG (Cmax) in plasma [1]: ≤ 3 h
- CCL2 levels in plasma vs vehicle or untreated samples (CCL2 [2]): did not change
- CCL2 concentrations in MC38 tumors (CCL2 [3]): dose dependently increased
- transcript frequency of Adgre1 (F4/80) (TAM-associated genes): significantly reduced
- transcript frequency of Arg1 (TAM-associated genes): unchanged
- transcript frequency of CSF1R (TAM-associated genes): significantly reduced
- transcript frequency of Hilpda (TAM-associated genes): unchanged
- transcript frequency of Maf (TAM-associated genes): reduced
- transcript frequency of MafB (TAM-associated genes): unchanged
- transcript frequency of Mgl2 (TAM-associated genes): reduced
- transcript frequency of Mrc1 (CD206) (TAM-associated genes): significantly reduced
- transcript frequency of Nos2 (TAM-associated genes): unchanged
- transcript frequency of VEGFA (TAM-associated genes): unchanged
